Experiments:
Experiment in all cases: KINOMEscan binding assay
Settings in all cases: read-out: % Ctrl @ 10000 nM
[1] = biological target: MST2 (Homo sapiens, UniProt Q13188)
[2] = biological target: LOK (Homo sapiens, UniProt O94804)
[3] = biological target: SYK (Homo sapiens, UniProt P43405)
[4] = biological target: PRKG1 (Homo sapiens, UniProt Q13976)
[5] = biological target: TAOK3 (Homo sapiens, UniProt Q9H2K8)
[6] = biological target: GSK3A (Homo sapiens, UniProt P49840)
[7] = biological target: ABL1 (F317L) non-phosphorylated (Homo sapiens, UniProt P00519, F317L)
Sequence of ABL1 (F317L) non-phosphorylated (P00519 whole entry F317L): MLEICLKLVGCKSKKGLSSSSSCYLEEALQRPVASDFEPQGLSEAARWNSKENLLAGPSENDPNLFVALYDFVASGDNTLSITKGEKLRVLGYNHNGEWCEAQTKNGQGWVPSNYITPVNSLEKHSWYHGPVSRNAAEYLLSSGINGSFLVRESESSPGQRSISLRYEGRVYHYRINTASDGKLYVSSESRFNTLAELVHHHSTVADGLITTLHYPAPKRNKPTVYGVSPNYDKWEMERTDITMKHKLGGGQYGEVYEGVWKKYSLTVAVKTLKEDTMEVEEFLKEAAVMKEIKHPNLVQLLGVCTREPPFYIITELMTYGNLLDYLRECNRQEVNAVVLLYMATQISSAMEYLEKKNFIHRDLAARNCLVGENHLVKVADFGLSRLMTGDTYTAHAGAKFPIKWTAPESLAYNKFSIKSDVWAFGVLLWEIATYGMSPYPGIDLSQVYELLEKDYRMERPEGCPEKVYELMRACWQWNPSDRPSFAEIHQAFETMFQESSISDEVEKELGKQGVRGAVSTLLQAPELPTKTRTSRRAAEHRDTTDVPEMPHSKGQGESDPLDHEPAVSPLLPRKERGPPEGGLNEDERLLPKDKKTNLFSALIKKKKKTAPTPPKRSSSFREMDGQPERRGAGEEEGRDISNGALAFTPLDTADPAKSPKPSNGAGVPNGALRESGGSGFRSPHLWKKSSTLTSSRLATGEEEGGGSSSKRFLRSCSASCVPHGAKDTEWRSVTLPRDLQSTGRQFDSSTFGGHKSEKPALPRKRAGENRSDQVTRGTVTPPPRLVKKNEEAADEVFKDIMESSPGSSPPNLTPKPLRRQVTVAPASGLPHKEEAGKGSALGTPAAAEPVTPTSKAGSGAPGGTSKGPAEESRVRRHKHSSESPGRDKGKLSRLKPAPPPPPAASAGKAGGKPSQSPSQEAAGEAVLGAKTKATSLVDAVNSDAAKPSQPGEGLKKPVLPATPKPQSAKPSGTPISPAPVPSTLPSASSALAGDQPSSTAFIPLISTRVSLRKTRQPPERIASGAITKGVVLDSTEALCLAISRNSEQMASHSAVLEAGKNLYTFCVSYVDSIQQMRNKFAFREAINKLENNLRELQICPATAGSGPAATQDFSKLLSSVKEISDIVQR

[8] = biological target: WEE1 (Homo sapiens, UniProt P30291)
Sequence of WEE1 (P30291 whole entry): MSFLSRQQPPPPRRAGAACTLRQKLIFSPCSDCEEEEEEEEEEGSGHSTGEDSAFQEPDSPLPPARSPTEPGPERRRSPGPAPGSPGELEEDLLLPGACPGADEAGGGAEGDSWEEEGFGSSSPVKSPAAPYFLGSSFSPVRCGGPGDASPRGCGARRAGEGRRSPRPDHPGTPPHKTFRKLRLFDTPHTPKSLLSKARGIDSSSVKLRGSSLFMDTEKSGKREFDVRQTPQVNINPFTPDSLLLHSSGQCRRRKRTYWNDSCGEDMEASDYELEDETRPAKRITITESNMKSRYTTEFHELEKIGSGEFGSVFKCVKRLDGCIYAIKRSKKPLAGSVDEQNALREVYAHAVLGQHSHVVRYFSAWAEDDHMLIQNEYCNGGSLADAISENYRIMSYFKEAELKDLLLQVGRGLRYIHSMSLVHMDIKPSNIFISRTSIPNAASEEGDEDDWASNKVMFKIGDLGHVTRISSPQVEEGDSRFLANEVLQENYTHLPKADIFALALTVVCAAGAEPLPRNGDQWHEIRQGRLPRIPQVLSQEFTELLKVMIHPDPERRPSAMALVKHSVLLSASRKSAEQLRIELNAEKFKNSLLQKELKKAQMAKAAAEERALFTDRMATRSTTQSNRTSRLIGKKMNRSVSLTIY

[9] = biological target: MEK5 (Homo sapiens, UniProt Q13163)
[10] = biological target: p38-gamma (Homo sapiens, UniProt P53778)
[11] = biological target: ERBB4 (Homo sapiens, UniProt Q15303)
[12] = biological target: T1, YSK1 (Homo sapiens, UniProt O00506)
T1 construct: purchased DiscoveRx (KINOMEscan, LeadHunter Discovery services)

[13] = biological target: DDR1 (Homo sapiens, UniProt Q08345)
Sequence of DDR1 (Q08345 19-913): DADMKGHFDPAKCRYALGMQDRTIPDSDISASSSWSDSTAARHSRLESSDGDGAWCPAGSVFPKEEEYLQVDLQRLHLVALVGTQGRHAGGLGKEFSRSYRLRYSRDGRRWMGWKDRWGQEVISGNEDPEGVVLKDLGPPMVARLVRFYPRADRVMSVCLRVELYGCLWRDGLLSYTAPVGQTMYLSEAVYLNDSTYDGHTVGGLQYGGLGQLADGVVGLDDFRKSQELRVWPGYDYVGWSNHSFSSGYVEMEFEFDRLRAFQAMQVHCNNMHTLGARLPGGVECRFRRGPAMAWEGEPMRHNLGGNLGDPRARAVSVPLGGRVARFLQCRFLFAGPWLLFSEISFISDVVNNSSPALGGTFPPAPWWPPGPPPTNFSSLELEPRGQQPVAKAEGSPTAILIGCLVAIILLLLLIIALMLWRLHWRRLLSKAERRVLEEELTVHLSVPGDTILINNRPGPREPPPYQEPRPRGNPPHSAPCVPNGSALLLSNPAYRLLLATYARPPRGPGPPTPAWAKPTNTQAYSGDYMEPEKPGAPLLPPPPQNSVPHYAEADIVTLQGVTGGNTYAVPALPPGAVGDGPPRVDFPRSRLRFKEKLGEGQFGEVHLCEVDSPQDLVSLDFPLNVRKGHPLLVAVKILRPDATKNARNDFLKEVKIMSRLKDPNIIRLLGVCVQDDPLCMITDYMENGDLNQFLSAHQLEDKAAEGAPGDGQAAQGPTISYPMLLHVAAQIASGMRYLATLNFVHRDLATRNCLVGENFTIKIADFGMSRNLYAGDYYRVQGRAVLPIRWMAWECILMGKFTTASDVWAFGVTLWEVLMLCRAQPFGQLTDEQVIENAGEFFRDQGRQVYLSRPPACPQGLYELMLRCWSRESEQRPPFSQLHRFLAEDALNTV

[14] = biological target: GRK7 (Homo sapiens, UniProt Q8WTQ7)
[15] = biological target: MAP3K3 (Homo sapiens, UniProt Q99759)
[16] = biological target: KIT (L576P) (Homo sapiens, UniProt P10721, L576P)
[17] = biological target: CDK4-cyclinD3 (Homo sapiens, UniProt P11802)
[18] = biological target: FLT3-autoinhibited (Homo sapiens, UniProt P36888)
[19] = biological target: SNRK (Homo sapiens, UniProt Q9NRH2)
[20] = biological target: DDR2 (Homo sapiens, UniProt Q16832)
[21] = biological target: ERK5 (Homo sapiens, UniProt Q13164)
[22] = biological target: GRK1 (Homo sapiens, UniProt Q15835)
[23] = biological target: ERK1 (Homo sapiens, UniProt P27361)
[24] = biological target: CTK (Homo sapiens, UniProt P42679)
[25] = biological target: MKNK2 (Homo sapiens, UniProt Q9HBH9)
[26] = biological target: DLK (Homo sapiens, UniProt Q12852)
[27] = biological target: RSK2 Kin.Dom.1-N-terminal (Homo sapiens, UniProt P51812)
[28] = biological target: PFPK5 P. falciparum (Plasmodium falciparum, UniProt P61075)
[29] = biological target: TYK2 JH1domain-catalytic (Homo sapiens, UniProt P29597)
[30] = biological target: MYO3A (Homo sapiens, UniProt Q8NEV4)
[31] = biological target: MST1 (Homo sapiens, UniProt Q13043)
Sequence of MST1 (Q13043 whole entry): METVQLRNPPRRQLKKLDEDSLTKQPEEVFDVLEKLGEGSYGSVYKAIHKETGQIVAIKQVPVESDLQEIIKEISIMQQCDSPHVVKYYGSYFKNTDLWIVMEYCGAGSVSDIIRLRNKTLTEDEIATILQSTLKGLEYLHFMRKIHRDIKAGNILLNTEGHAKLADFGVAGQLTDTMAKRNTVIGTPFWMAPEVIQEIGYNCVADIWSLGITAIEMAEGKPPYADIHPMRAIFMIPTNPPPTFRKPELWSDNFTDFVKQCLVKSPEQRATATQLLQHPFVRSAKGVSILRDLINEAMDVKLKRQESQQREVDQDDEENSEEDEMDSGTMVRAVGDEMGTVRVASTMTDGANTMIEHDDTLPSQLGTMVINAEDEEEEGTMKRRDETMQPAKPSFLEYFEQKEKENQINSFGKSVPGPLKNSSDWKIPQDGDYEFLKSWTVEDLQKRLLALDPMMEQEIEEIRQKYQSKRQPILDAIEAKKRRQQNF

[32] = biological target: HIPK2 (Homo sapiens, UniProt Q9H2X6)
Sequence of HIPK2 (Q9H2X6 whole entry): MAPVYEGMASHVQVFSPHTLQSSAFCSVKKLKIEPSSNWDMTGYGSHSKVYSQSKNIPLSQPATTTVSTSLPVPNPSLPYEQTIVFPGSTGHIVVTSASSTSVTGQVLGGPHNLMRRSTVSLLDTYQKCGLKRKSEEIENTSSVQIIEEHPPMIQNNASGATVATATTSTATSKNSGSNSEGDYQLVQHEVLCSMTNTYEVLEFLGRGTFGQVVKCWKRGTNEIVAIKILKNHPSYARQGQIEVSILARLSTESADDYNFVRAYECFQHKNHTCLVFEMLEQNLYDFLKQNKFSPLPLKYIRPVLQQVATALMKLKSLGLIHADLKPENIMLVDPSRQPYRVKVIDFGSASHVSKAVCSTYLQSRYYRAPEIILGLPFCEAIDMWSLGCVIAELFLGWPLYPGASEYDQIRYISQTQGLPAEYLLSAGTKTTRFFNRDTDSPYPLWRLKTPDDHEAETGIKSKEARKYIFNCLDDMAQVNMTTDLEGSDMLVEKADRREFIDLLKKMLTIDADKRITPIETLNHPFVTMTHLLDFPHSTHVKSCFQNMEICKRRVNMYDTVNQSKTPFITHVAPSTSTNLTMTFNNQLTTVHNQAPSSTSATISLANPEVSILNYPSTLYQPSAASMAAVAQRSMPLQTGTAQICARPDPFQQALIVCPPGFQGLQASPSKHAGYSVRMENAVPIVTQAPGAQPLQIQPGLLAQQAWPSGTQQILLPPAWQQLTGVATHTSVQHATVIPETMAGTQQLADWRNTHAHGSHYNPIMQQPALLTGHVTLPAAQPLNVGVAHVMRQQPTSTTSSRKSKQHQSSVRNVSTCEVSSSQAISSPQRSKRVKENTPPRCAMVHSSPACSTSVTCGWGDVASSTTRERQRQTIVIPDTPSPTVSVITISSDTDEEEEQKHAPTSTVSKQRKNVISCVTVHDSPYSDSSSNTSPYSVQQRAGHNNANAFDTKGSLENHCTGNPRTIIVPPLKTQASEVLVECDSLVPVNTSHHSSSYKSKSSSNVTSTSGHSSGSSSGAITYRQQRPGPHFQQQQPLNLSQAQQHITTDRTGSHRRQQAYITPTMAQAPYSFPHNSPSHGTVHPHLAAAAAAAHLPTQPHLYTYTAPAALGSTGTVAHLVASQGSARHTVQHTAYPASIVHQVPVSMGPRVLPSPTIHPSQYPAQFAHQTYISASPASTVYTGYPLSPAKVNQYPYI

[33] = biological target: EGFR (L861Q) (Homo sapiens, UniProt P00533, L861Q)
[34] = biological target: PRKD2 (Homo sapiens, UniProt Q9BZL6)
[35] = biological target: PRKX (Homo sapiens, UniProt P51817)
[36] = biological target: CDK3 (Homo sapiens, UniProt Q00526)
[37] = biological target: ABL1 (E255K) phosphorylated (Homo sapiens, UniProt P00519, E255K)
Sequence of ABL1 (E255K) phosphorylated (P00519 whole entry E255K): as the sequence (P00519 whole entry F317L) above, with E255K, L317F counted along it

[38] = biological target: HIPK4 (Homo sapiens, UniProt Q8NE63)
[39] = biological target: MKNK1 (Homo sapiens, UniProt Q9BUB5)
[40] = biological target: BMPR1A (Homo sapiens, UniProt P36894)
[41] = biological target: HUNK (Homo sapiens, UniProt P57058)
[42] = biological target: NEK3 (Homo sapiens, UniProt P51956)
Sequence of NEK3 (P51956 whole entry): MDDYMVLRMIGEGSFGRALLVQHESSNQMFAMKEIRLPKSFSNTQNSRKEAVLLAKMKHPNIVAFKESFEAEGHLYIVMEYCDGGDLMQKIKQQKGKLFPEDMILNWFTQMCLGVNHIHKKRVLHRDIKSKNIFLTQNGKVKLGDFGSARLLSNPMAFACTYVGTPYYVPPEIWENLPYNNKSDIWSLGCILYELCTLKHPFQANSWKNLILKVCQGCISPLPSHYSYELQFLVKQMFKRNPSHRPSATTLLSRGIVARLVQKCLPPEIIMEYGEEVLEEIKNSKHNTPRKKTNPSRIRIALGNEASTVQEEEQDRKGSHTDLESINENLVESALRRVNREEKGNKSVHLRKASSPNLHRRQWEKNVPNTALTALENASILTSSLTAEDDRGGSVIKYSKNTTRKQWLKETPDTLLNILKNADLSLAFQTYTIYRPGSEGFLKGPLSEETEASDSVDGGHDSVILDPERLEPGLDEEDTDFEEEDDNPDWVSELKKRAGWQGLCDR

[43] = biological target: CDKL1 (Homo sapiens, UniProt Q00532)

Nc1ncc(-c2nc3ccccc3o2)c(-c2ccncc2)n1 [Comparative Compound 324, 5-(1,3-benzoxazol-2-yl)-4-(pyridine-4-yl)pyrimidin-2-amine]
remaining binding at 10 µM [1]: 94% | remaining binding at 10 µM [2]: 72% | remaining binding at 10 µM [3]: 100% | remaining binding at 10 µM [4]: 100% | remaining binding at 10 µM [5]: 91% | remaining binding at 10 µM [6]: 86% | remaining binding at 10 µM [7]: 100% | remaining binding at 10 µM [8]: 100% | remaining binding at 10 µM [9]: 66% | remaining binding at 10 µM [10]: 61% | remaining binding at 10 µM [11]: 100% | remaining binding at 10 µM [12]: 84% | remaining binding at 10 µM [13]: 94% | remaining binding at 10 µM [14]: 91% | remaining binding at 10 µM [15]: 76% | remaining binding at 10 µM [16]: 57% | remaining binding at 10 µM [17]: 100% | remaining binding at 10 µM [18]: 95% | remaining binding at 10 µM [19]: 65% | remaining binding at 10 µM [20]: 100% | remaining binding at 10 µM [21]: 93% | remaining binding at 10 µM [22]: 68% | remaining binding at 10 µM [23]: 96% | remaining binding at 10 µM [24]: 100% | remaining binding at 10 µM [25]: 70% | remaining binding at 10 µM [26]: 91% | remaining binding at 10 µM [27]: 80% | remaining binding at 10 µM [28]: 100% | remaining binding at 10 µM [29]: 86% | remaining binding at 10 µM [30]: 98% | remaining binding at 10 µM [31]: 92% | remaining binding at 10 µM [32]: 67% | remaining binding at 10 µM [33]: 64% | remaining binding at 10 µM [34]: 90% | remaining binding at 10 µM [35]: 100% | remaining binding at 10 µM [36]: 98% | remaining binding at 10 µM [37]: 33% | remaining binding at 10 µM [38]: 100% | remaining binding at 10 µM [39]: 96% | remaining binding at 10 µM [40]: 100% | remaining binding at 10 µM [41]: 96% | remaining binding at 10 µM [42]: 69% | remaining binding at 10 µM [43]: 68%

CNc1c(C(N)=O)c2ccccn2c1C(=O)c1ccc(F)cc1 [Compound A, 2-methyl-amino-3-[(4-fluorophenyl)carbonyl]indolizine-1-carboxamide]
remaining binding at 10 µM [1]: 89% | remaining binding at 10 µM [2]: 61% | remaining binding at 10 µM [3]: 86% | remaining binding at 10 µM [4]: 100% | remaining binding at 10 µM [5]: 93% | remaining binding at 10 µM [6]: 56% | remaining binding at 10 µM [7]: 88% | remaining binding at 10 µM [8]: 94% | remaining binding at 10 µM [9]: 51% | remaining binding at 10 µM [10]: 79% | remaining binding at 10 µM [11]: 64% | remaining binding at 10 µM [12]: 64% | remaining binding at 10 µM [13]: 2.6% | remaining binding at 10 µM [14]: 65% | remaining binding at 10 µM [15]: 48% | remaining binding at 10 µM [16]: 29% | remaining binding at 10 µM [17]: 96% | remaining binding at 10 µM [18]: 87% | remaining binding at 10 µM [19]: 66% | remaining binding at 10 µM [20]: 65% | remaining binding at 10 µM [21]: 78% | remaining binding at 10 µM [22]: 53% | remaining binding at 10 µM [23]: 100% | remaining binding at 10 µM [24]: 100% | remaining binding at 10 µM [25]: 58% | remaining binding at 10 µM [26]: 84% | remaining binding at 10 µM [27]: 59% | remaining binding at 10 µM [28]: 100% | remaining binding at 10 µM [29]: 71% | remaining binding at 10 µM [30]: 98% | remaining binding at 10 µM [31]: 84% | remaining binding at 10 µM [32]: 74% | remaining binding at 10 µM [33]: 29% | remaining binding at 10 µM [34]: 68% | remaining binding at 10 µM [35]: 100% | remaining binding at 10 µM [36]: 92% | remaining binding at 10 µM [37]: 15% | remaining binding at 10 µM [38]: 83% | remaining binding at 10 µM [39]: 100% | remaining binding at 10 µM [40]: 100% | remaining binding at 10 µM [41]: 79% | remaining binding at 10 µM [42]: 66% | remaining binding at 10 µM [43]: 61%

Source: patent publication US10815230B2, “Casein kinase 1 delta inhibitor” (ELECTROPHORETICS LIMITED, priority 2015, dated 2020)
